Laboratory results as given in the supplement of paper PMC13380429.

Tests used:
Settings in all cases: 72 h
Caco-2 [1] = assay: drug sensitivity score (DSS) for viability; higher = more toxic; extreme values may be limits of the assay
Calu-3 [2] = assay: as above
Vero E6 [3] = assay: as above
HepG2 [4] = assay: as above
U2OS [5] = assay: as above
Caco-2 [6] = assay: cell viability relative to DMSO; higher = less toxic
Calu-3 [7] = assay: as above
Vero E6 [8] = assay: as above
HepG2 [9] = assay: as above
U2OS [10] = assay: as above
Caco-2 [11] = assay: relative viability EC50 (midpoint between 100% and the lowest measured viability); higher = less toxic
Calu-3 [12] = assay: as above
Vero E6 [13] = assay: as above
HepG2 [14] = assay: as above
U2OS [15] = assay: as above

Row | Compound | drug sensitivity score (Caco-2 [1]) | drug sensitivity score (Calu-3 [2]) | drug sensitivity score (Vero E6 [3]) | drug sensitivity score (HepG2 [4]) | drug sensitivity score (U2OS [5]) | cell viability (Caco-2 [6]; 1 nM) | cell viability (Caco-2 [6]; 10 nM) | cell viability (Caco-2 [6]; 100 nM) | cell viability (Caco-2 [6]; 1000 nM) | cell viability (Caco-2 [6]; 10000 nM) | cell viability (Calu-3 [7]; 1 nM) | cell viability (Calu-3 [7]; 10 nM) | cell viability (Calu-3 [7]; 100 nM) | cell viability (Calu-3 [7]; 1000 nM) | cell viability (Calu-3 [7]; 10000 nM) | cell viability (Vero E6 [8]; 1 nM) | cell viability (Vero E6 [8]; 10 nM) | cell viability (Vero E6 [8]; 100 nM) | cell viability (Vero E6 [8]; 1000 nM) | cell viability (Vero E6 [8]; 10000 nM) | cell viability (HepG2 [9]; 1 nM) | cell viability (HepG2 [9]; 10 nM) | cell viability (HepG2 [9]; 100 nM) | cell viability (HepG2 [9]; 1000 nM) | cell viability (HepG2 [9]; 10000 nM) | cell viability (U2OS [10]; 1 nM) | cell viability (U2OS [10]; 10 nM) | cell viability (U2OS [10]; 100 nM) | cell viability (U2OS [10]; 1000 nM) | cell viability (U2OS [10]; 10000 nM) | relative viability EC50 (Caco-2 [11]) | relative viability EC50 (Calu-3 [12]) | relative viability EC50 (Vero E6 [13]) | relative viability EC50 (HepG2 [14]) | relative viability EC50 (U2OS [15])
1 | Oc1c(I)cc(Cl)c2cccnc12 [clioquinol] | 0.2 | 0 | 0 | 0.7 | 0 | 93.5% | 92.2% | 108% | 99.7% | 85.8% | 95% | 93.2% | 104% | 87.8% | 97.1% | 106% | 99.3% | 108% | 111% | 87.2% | 101% | 98.7% | 92.8% | 104% | 75.6% | 97.1% | 93.6% | 100% | 96.4% | 99.5% | > 10 µM | > 10 µM | > 10 µM | > 10 µM | > 10 µM
2 | O=C1Nc2ccccc2C12OCC1(CO2)COC2(OC1)C(=O)Nc1ccccc12 (stereo not given) [JW-67] | 0 | 0.1 | 0.1 | 0 | 0 | 87.2% | 92.5% | 91.8% | 93.2% | 88.1% | 90.8% | 92.1% | 103% | 87.2% | 85.3% | 88.4% | 103% | 91.2% | 90.5% | 86% | 97.1% | 98.6% | 93.6% | 98.4% | 105% | 97.6% | 97.5% | 102% | 94.6% | 92.5% | > 10 µM | > 10 µM | > 10 µM | > 10 µM | > 10 µM
3 | O=C(O)c1ccccc1NC(=O)N1CCC(c2ccccc2C(F)(F)F)CC1 [A-1120] | 0.6 | 0 | 0 | 0 | 0 | 100% | 93.2% | 98.4% | 96.8% | 84.2% | 102% | 96.5% | 100% | 94.1% | 106% | 101% | 100% | 93.1% | 95.4% | 93.5% | 88.2% | 96.1% | 107% | 103% | 108% | 104% | 104% | 102% | 100% | 98.7% | > 10 µM | > 10 µM | > 10 µM | > 10 µM | > 10 µM
4 | O=C(Oc1cc(S(=O)(=O)c2ccccc2)ccc1[N+](=O)[O-])c1ccc(Cl)cc1 | 0 | 0 | 0 | 0 | 0 | 103% | 93.4% | 92.3% | 87.5% | 103% | 101% | 97.2% | 92.5% | 94.8% | 106% | 97.5% | 104% | 94.7% | 101% | 106% | 100% | 97.2% | 98.4% | 97.2% | 102% | 96.5% | 94.9% | 97.4% | 94.6% | 96.9% | > 10 µM | > 10 µM | > 10 µM | > 10 µM | > 10 µM
